#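 48-hour exposure; five concentrations; linearly interpolated endpoints. At the GI50, growth is halved. TGI: concentration producing complete growth inhibition.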
# What was measured:
# Assay in all cases: NCI-60 cell line screen, 48 h
# [1] = system: CAKI-1 renal
# [2] = system: A549 NSCLC
# [3] = system: KM12 colon
# [4] = system: MDA-MB-231 breast
# [5] = system: SNB-19 CNS
# [6] = system: OVCAR-4 ovarian
# [7] = system: SF-295 CNS
# [8] = system: HCT-116 colon
# [9] = system: MOLT-4 leukemia
# [10] = system: T-47D breast
# [11] = system: CCRF-CEM leukemia
# [12] = system: SK-MEL-2 melanoma
# [13] = system: NCI-H522 lung
# [14] = system: SF-539 CNS
# [15] = system: COLO 205 colon
# [16] = system: ACHN renal
# [17] = system: HOP-92 NSCLC
# [18] = system: DU-145 prostate
# [19] = system: MDA-MB-435
# [20] = system: HOP-62 NSCLC
# [21] = system: UACC-62 melanoma
# [22] = system: M14 melanoma
# [23] = system: OVCAR-3 ovarian
# [24] = system: OVCAR-5 ovarian
# [25] = system: EKVX NSCLC
# [26] = system: NCI-H23 lung
# [27] = system: MALME-3M melanoma
# [28] = system: OVCAR-8 ovarian
# [29] = system: UO-31 renal
# [30] = system: BT-549 breast
# [31] = system: U251 CNS
# [32] = system: HL-60(TB) leukemia
# [33] = system: LOX IMVI melanoma
# [34] = system: SK-OV-3 ovarian
# [35] = system: A498 renal
# [36] = system: UACC-257 melanoma
# [37] = system: HCT-15 colon
# [38] = system: PC-3 prostate
# [39] = system: NCI-H226 lung
# [40] = system: NCI/ADR-RES ovarian
# [41] = system: MCF7 breast
# [42] = system: RXF 393 renal
# [43] = system: TK-10 renal
# [44] = system: SK-MEL-28 melanoma
# [45] = system: HCC-2998 colon
# [46] = system: SW-620 colon
# [47] = system: RPMI-8226 leukemia
# [48] = system: 786-0 renal
# [49] = system: SN12C renal
# [50] = system: HT29 colon
# [51] = system: SK-MEL-5 melanoma
# [52] = system: SF-268 CNS
# [53] = system: K-562 leukemia
# [54] = system: HS 578T breast
# [55] = system: SNB-75 CNS
# [56] = system: NCI-H460 lung
# [57] = system: IGROV1 ovarian
smiles,measurement,setting,value
CC(C)c1ccc(-c2cc(-c3cn[nH]c3-c3ccccn3)ccn2)cc1,GI50,[1],19.1 µM
same,TGI,[1],> 25 µM
same,GI50,[2],13.7 µM
same,TGI,[2],> 25 µM
same,GI50,[3],9.83 µM
same,TGI,[3],> 25 µM
same,GI50,[4],> 16.5 µM
same,TGI,[4],> 25 µM
same,GI50,[5],20.5 µM
same,TGI,[5],> 25 µM
same,GI50,[6],10.4 µM
same,TGI,[6],> 25 µM
same,GI50,[7],7.68 µM
same,TGI,[7],> 19.7 µM
same,GI50,[8],10.3 µM
same,TGI,[8],> 25 µM
same,GI50,[9],8.06 µM
same,TGI,[9],> 24.1 µM
same,GI50,[10],6.96 µM
same,TGI,[10],> 23.7 µM
same,GI50,[11],10.8 µM
same,TGI,[11],> 25 µM
same,GI50,[12],9.52 µM
same,TGI,[12],> 25 µM
same,GI50,[13],6.82 µM
same,TGI,[13],> 25 µM
same,GI50,[14],25 µM
same,TGI,[14],> 25 µM
same,GI50,[15],13.3 µM
same,TGI,[15],> 25 µM
same,GI50,[16],18.5 µM
same,TGI,[16],> 25 µM
same,GI50,[17],1.99 µM
same,TGI,[17],> 25 µM
same,GI50,[18],16 µM
same,TGI,[18],> 25 µM
same,GI50,[19],9.42 µM
same,TGI,[19],> 25 µM
same,GI50,[20],12 µM
same,TGI,[20],> 25 µM
same,GI50,[21],17.2 µM
same,TGI,[21],> 25 µM
same,GI50,[22],14.4 µM
same,TGI,[22],> 25 µM
same,GI50,[23],8.4 µM
same,TGI,[23],> 25 µM
same,GI50,[24],> 16.6 µM
same,TGI,[24],> 25 µM
same,GI50,[25],11.3 µM
same,TGI,[25],> 25 µM
same,GI50,[26],11.7 µM
same,TGI,[26],> 25 µM
same,GI50,[27],8.83 µM
same,TGI,[27],> 25 µM
same,GI50,[28],9.57 µM
same,TGI,[28],> 25 µM
same,GI50,[29],6.6 µM
same,TGI,[29],> 25 µM
same,GI50,[30],10.6 µM
same,TGI,[30],> 25 µM
same,GI50,[31],11.8 µM
same,TGI,[31],> 25 µM
same,GI50,[32],11.4 µM
same,TGI,[32],> 25 µM
same,GI50,[33],14.6 µM
same,TGI,[33],> 25 µM
same,GI50,[34],> 23.4 µM
same,TGI,[34],> 25 µM
same,GI50,[35],> 13.6 µM
same,TGI,[35],> 25 µM
same,GI50,[36],> 25 µM
same,TGI,[36],> 25 µM
same,GI50,[37],8.65 µM
same,TGI,[37],> 25 µM
same,GI50,[38],9 µM
same,TGI,[38],> 25 µM
same,GI50,[39],12.1 µM
same,TGI,[39],> 25 µM
same,GI50,[40],7.98 µM
same,TGI,[40],> 25 µM
same,GI50,[41],> 18.9 µM
same,TGI,[41],> 25 µM
same,GI50,[42],> 18.5 µM
same,TGI,[42],> 25 µM
same,GI50,[43],> 18.6 µM
same,TGI,[43],> 25 µM
same,GI50,[44],> 25 µM
same,TGI,[44],> 25 µM
same,GI50,[45],10.4 µM
same,TGI,[45],> 25 µM
same,GI50,[46],18 µM
same,TGI,[46],> 25 µM
same,GI50,[47],11.9 µM
same,TGI,[47],> 25 µM
same,GI50,[48],> 18.8 µM
same,TGI,[48],> 25 µM
same,GI50,[49],15.9 µM
same,TGI,[49],> 25 µM
same,GI50,[50],6.92 µM
same,TGI,[50],> 19.6 µM
same,GI50,[51],6.65 µM
same,TGI,[51],> 16.6 µM
same,GI50,[52],14.9 µM
same,TGI,[52],> 25 µM
same,GI50,[53],9.03 µM
same,TGI,[53],> 25 µM
same,GI50,[54],> 16.2 µM
same,TGI,[54],> 25 µM
same,GI50,[55],> 9.11 µM
same,TGI,[55],> 25 µM
same,GI50,[56],7.64 µM
same,TGI,[56],> 25 µM
same,GI50,[57],> 23.3 µM
same,TGI,[57],> 25 µM

# Source: PubChem BioAssay (NCI)
